The text below walks through data of PMC4685510, “A Cell Biologist’s Field Guide to Aurora Kinase Inhibitors” (Frontiers in Oncology, 2015).

What all share (experiment): biochemical
What all share (type): biochemical

Assay [1] has as its target 363 human kinases (including Aurora A/B/C) (Homo sapiens, UniProt P42685). The conditions noted are these: FRK/PTK5; for remaining activity at 0.5 µM / remaining activity at 0.1 µM: read-out: % Enzyme Activity (relative to DMSO controls); for remaining activity at 0.1 µM: 100 nM.
Description: (§1) However, the Aurora A/B selectivity ratios derived from our in vitro and in vivo data can be compared to prioritize inhibitors.
Assay [2] deals with 363 human kinases (including Aurora A/B/C) (Homo sapiens, UniProt Q9P289). The conditions noted are these: MST4; for remaining activity at 0.5 µM / remaining activity at 0.1 µM: read-out: % Enzyme Activity (relative to DMSO controls); for remaining activity at 0.1 µM: 100 nM.
Description: as §1
Assay [3] concerns the target T1, 363 human kinases (including Aurora A/B/C) (Homo sapiens, UniProt Q96BR1).
T1 sequence (Q96BR1 1-496): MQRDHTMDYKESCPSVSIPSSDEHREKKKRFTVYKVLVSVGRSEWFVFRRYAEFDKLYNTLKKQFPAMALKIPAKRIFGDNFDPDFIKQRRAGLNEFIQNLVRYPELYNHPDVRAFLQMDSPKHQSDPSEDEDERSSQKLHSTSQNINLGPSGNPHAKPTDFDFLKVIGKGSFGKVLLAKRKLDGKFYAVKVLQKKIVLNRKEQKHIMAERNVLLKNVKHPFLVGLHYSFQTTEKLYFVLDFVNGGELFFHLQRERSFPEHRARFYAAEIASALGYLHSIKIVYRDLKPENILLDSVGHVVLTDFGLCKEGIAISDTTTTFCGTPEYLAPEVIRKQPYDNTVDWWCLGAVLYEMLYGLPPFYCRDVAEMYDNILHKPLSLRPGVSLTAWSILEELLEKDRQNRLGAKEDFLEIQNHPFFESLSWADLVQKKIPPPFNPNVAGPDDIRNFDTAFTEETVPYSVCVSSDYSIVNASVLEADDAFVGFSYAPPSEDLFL
Particulars: SGK3/SGKL; for remaining activity at 0.5 µM / remaining activity at 0.1 µM: read-out: % Enzyme Activity (relative to DMSO controls); for remaining activity at 0.1 µM: 100 nM.
Description: as §1

Assay [4] concerns the target 363 human kinases (including Aurora A/B/C) (Homo sapiens, UniProt Q9H4A3). The conditions noted are these: WNK1; for remaining activity at 0.5 µM / remaining activity at 0.1 µM: read-out: % Enzyme Activity (relative to DMSO controls); for remaining activity at 0.1 µM: 100 nM.
Description: as §1
For assay [5], the target named is 363 human kinases (including Aurora A/B/C) (Homo sapiens, UniProt Q15375). Particulars: EPHA7, [ATP] 100 µM; for remaining activity at 0.5 µM / remaining activity at 0.1 µM: read-out: % Enzyme Activity (relative to DMSO controls); for remaining activity at 0.1 µM: 100 nM.
Description: as §1
For assay [6], the target named is 363 human kinases (including Aurora A/B/C) (Homo sapiens, UniProt Q9BUB5). Particulars: MNK1; for remaining activity at 0.5 µM / remaining activity at 0.1 µM: read-out: % Enzyme Activity (relative to DMSO controls); for remaining activity at 0.1 µM: 100 nM.
Description: as §1
In assay [7] the target is 363 human kinases (including Aurora A/B/C) (Homo sapiens, UniProt P17252). Particulars: PKCa; for remaining activity at 0.5 µM / remaining activity at 0.1 µM: read-out: % Enzyme Activity (relative to DMSO controls); for remaining activity at 0.1 µM: 100 nM.
Description: as §1
Assay [8] has as its target T2, 363 human kinases (including Aurora A/B/C) (Homo sapiens, UniProt O00141).
T2 sequence (O00141 1-431): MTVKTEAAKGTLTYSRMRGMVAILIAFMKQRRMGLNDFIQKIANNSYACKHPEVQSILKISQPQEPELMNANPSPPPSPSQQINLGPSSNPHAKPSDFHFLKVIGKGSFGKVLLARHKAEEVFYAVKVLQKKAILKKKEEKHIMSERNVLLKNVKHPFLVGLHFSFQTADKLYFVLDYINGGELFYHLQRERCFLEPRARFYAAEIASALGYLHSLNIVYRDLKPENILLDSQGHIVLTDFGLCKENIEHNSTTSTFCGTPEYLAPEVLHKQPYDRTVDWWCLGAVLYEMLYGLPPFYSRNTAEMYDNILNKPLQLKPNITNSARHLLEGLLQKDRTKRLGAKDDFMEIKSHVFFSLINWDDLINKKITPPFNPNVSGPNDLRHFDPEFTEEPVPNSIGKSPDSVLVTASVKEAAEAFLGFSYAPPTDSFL
Particulars: SGK1; for remaining activity at 0.5 µM / remaining activity at 0.1 µM: read-out: % Enzyme Activity (relative to DMSO controls); for remaining activity at 0.1 µM: 100 nM.
Description: as §1

Assay [9] concerns the target 363 human kinases (including Aurora A/B/C) (Homo sapiens, UniProt Q05655). Particulars: PKCd; for remaining activity at 0.5 µM / remaining activity at 0.1 µM: read-out: % Enzyme Activity (relative to DMSO controls); for remaining activity at 0.1 µM: 100 nM.
Description: as §1
Assay [10] concerns the target T3, 363 human kinases (including Aurora A/B/C) (Homo sapiens, UniProt Q96PY6).
T3 sequence (Q96PY6 1-1258): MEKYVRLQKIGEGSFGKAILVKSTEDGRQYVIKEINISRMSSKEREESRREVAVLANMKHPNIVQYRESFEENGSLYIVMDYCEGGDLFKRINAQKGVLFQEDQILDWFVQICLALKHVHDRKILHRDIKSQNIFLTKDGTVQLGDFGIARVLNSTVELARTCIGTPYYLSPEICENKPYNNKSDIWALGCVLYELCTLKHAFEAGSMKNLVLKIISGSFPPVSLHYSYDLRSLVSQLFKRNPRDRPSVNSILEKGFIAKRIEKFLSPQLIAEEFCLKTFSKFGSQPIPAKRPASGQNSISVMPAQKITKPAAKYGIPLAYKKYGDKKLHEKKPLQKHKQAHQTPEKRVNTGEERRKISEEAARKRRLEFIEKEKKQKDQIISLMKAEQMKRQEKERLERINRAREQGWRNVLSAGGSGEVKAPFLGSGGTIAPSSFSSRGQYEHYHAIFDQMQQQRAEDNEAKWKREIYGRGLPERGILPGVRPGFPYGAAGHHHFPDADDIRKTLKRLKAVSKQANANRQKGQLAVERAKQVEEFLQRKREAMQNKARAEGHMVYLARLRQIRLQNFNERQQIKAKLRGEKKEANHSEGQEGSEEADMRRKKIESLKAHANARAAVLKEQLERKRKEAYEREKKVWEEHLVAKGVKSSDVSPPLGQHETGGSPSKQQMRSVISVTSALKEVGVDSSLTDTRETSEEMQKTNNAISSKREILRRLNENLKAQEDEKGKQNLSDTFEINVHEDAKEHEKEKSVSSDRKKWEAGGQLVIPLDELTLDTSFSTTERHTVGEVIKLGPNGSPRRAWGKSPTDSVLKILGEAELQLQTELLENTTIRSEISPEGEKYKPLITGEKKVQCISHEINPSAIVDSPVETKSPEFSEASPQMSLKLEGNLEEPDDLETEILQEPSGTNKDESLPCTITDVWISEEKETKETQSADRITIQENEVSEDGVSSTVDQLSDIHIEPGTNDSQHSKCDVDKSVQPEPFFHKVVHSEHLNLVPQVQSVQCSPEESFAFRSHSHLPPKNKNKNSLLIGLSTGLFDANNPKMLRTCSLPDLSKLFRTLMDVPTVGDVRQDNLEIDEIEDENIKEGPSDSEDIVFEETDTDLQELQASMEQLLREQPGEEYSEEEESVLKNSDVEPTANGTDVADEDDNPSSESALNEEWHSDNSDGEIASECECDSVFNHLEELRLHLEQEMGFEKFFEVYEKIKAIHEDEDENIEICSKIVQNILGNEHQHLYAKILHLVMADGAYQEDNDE
Particulars: NEK1; for remaining activity at 0.5 µM / remaining activity at 0.1 µM: read-out: % Enzyme Activity (relative to DMSO controls); for remaining activity at 0.1 µM: 100 nM.
Description: as §1

363 human kinases (including Aurora A/B/C) (Homo sapiens, UniProt Q05655), sequence (Q05655 whole entry): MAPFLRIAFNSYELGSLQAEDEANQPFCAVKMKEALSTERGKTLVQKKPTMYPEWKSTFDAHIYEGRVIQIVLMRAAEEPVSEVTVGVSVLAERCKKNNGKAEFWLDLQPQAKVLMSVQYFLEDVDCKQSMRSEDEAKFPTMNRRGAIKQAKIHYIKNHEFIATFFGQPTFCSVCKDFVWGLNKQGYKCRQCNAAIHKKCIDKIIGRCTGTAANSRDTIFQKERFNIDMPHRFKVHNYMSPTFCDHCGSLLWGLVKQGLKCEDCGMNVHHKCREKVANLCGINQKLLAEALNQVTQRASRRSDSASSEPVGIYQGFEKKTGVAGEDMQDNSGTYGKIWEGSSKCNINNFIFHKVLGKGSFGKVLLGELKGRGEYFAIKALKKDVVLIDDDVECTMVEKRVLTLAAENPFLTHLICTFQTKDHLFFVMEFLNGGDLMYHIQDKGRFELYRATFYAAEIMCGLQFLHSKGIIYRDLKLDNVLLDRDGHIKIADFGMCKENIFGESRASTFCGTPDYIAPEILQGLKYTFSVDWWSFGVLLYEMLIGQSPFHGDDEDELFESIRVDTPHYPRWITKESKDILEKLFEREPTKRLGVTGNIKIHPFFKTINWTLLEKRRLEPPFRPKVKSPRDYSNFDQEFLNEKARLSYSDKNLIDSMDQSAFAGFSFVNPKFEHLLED
363 human kinases (including Aurora A/B/C) (Homo sapiens, UniProt Q15375), sequence (Q15375 28-998): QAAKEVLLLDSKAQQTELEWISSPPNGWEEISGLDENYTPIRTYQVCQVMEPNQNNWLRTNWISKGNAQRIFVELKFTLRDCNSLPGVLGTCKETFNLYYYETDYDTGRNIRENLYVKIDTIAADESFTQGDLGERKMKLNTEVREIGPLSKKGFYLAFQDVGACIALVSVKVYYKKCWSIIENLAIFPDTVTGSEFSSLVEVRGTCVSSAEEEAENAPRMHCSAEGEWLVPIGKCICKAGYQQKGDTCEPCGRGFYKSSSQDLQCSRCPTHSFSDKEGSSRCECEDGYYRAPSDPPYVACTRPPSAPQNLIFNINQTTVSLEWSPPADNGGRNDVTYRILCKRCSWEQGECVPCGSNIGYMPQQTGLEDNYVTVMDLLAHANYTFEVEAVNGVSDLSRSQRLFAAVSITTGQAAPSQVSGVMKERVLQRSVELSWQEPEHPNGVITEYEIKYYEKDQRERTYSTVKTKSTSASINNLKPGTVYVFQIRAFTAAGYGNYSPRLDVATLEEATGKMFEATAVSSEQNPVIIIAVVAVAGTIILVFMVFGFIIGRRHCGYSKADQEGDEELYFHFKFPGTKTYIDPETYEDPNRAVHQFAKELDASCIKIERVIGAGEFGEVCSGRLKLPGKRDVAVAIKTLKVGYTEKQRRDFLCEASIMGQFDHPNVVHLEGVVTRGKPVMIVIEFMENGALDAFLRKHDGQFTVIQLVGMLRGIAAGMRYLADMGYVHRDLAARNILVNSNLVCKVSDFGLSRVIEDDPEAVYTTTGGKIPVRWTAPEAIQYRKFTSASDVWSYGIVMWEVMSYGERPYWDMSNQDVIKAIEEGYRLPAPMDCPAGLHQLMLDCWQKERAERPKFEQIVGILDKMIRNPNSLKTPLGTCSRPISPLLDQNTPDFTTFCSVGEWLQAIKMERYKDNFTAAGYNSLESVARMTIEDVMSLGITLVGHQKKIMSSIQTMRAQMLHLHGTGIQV
363 human kinases (including Aurora A/B/C) (Homo sapiens, UniProt Q9P289), sequence (Q9P289 whole entry): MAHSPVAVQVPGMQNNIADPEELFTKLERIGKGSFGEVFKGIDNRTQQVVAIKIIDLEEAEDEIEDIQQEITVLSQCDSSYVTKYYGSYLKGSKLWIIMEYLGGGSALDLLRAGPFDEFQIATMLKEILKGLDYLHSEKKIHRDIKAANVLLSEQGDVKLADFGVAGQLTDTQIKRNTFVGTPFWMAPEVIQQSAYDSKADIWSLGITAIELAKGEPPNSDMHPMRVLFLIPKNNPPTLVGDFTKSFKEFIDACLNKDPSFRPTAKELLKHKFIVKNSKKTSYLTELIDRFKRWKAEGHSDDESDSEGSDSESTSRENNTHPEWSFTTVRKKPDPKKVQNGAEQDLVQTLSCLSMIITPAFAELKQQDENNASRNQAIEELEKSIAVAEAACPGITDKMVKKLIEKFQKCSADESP
363 human kinases (including Aurora A/B/C) (Homo sapiens, UniProt P42685), sequence (P42685 whole entry): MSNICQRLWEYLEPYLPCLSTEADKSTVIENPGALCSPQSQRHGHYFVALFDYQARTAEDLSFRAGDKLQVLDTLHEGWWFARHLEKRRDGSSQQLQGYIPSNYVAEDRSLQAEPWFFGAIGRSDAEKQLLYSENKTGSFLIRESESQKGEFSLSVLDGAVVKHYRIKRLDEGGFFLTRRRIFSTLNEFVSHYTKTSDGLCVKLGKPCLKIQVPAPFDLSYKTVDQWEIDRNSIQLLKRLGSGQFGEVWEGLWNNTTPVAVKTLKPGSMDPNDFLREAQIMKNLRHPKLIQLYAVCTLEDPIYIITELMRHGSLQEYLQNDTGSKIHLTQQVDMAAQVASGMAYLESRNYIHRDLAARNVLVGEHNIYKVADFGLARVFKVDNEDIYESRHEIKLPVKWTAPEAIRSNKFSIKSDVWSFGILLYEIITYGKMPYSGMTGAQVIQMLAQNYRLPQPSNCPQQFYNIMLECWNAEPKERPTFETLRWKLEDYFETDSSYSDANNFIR
363 human kinases (including Aurora A/B/C) (Homo sapiens, UniProt Q9BUB5), sequence (Q9BUB5 whole entry): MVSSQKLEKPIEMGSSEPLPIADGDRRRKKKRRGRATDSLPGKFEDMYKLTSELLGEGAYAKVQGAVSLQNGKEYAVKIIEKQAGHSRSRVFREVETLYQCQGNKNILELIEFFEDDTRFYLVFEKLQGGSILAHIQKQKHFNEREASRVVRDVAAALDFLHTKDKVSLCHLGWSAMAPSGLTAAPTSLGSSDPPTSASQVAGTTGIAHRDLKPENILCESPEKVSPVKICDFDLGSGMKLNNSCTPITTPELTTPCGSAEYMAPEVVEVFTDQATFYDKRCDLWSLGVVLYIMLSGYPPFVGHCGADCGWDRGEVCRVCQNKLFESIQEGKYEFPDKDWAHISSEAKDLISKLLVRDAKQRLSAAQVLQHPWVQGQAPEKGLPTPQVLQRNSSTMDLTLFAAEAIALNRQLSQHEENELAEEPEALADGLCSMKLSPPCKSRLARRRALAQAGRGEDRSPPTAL

Regarding `O=C(c1cccc(Cl)c1F)N1CCN(Cc2cccc(Nc3nccs3)n2)CC1` [MK-8745], the “% Enzyme Activity (relative to DMSO controls)” value in assay [1] (500 nM) came out at 94.09%; in [2] (500 nM), 78.55%; in assay [3] (500 nM) it was 98.27%; in assay [4] (500 nM) it was 90.95%; in assay [5] (500 nM), 62.14%; in assay [6] (500 nM) it was 107.37%. Also, the “% Enzyme Activity (relative to DMSO controls)” value in [7] (500 nM) is reported as 92.64%; in [8] (500 nM), 103.73%; in assay [9] (500 nM), 130.26%; in assay [10] (500 nM) it was 94.59%. Besides, the remaining activity at 0.5 µM in assay [1] (500 nM) turned out to be 98.1%; in [2] (500 nM) it was 87.2%; in [3] (500 nM), 99.7%; in [4] (500 nM), 91.3%; in assay [5] (500 nM) it was 63.1%; in assay [6] (500 nM) it was 107%. In addition, the remaining activity at 0.5 µM in assay [7] (500 nM) came to 95.4%; in assay [8] (500 nM) it was 104%; in [9] (500 nM), 141%; in assay [10] (500 nM) it was 97.9%.

In the case of `CCn1cc(-c2ccnc3[nH]c(-c4cccc(CN(C)C)c4)cc23)c(-c2ccc(NC(=O)N(C)C)cc2)n1` [GSK1070916], the remaining activity at 0.1 µM in assay [1] turned out to be 99.9%; in [2], 76.4%; in assay [3], 105%; in assay [4], 84.3%; in assay [5], 89%; in assay [6], 113%. The remaining activity at 0.1 µM in assay [7] is 99.6%; in assay [8], 118%; in [9], 201%; in assay [10], 101%.

For `O=C(O)[C@]1(Cc2cccc(Nc3nccs3)n2)CC[C@@H](Oc2cccc(Cl)c2F)CC1` [MK-5108], the remaining activity at 0.1 µM in assay [1] was 41%; in assay [2], 84%; in assay [3], 106%; in assay [4], 94%; in assay [5] it was 35.6%; in [6], 105%. The remaining activity at 0.1 µM in [7] was 69.8%; in assay [8], 104%; in [9], 97.8%; in assay [10], 101%. The remaining activity at 0.5 µM came to 19.8% in [1] (500 nM); 81.5% in assay [2] (500 nM); 105% in assay [3] (500 nM); 86.4% in assay [4] (500 nM); 9.76% in [5] (500 nM); 116% in [6] (500 nM). Moreover, the remaining activity at 0.5 µM in assay [7] (500 nM) amounted to 33.2%; in assay [8] (500 nM), 113%; in [9] (500 nM), 201%; in assay [10] (500 nM), 103%.
